Patent US4626533A, “7-(2-thienylacetamido)-3-acylaminomethyl-cephalosporins” (Biogal Gyogyszergyar, priority 1983, dated 1986)

system: Gram-negative strains; experiment: MIC determination, Gram-negative strains; type: cell-based; conditions: range over Gram-negative strains
Description: The examinations were carried out by using the bacteria strains listed hereinbelow: Gram-negative strains E. coli 35034 Klebsiella 52001 Klebsiella ATCC 1200 S. hartford 10063 P. mirabilis 60012 P. morganii 63002 P. rettgeri 65002 P. inconstans 67001 P. aeruginosa ATCC 27853

MIC, > 100 µg/mL:
Cn1nnnc1SCC(=O)NC1C(=O)N2C(C(=O)O)=C(CNC(=O)c3c(Cl)cccc3Cl)CSC12 (stereo not drawn) [Example 14, 7-(1-methyl-1H-tetrazole-5-ylthio)acetamido-3-(2,6-dichlorobenzamino)methylceph-3-em-4-carboxylic acid]
CC(=O)NCC1=C(C(=O)O)N2C(=O)C(NC(=O)CSc3nnc(-c4ccccc4)o3)[C@H]2SC1 (stereo partly drawn) [Example 8, 7-(2-phenyl-1,3,4-oxadiazole-5-ylthio)acetylamino-3-acetylaminomethylceph-3-em-4-carboxylic acid]
O=C(CSc1nnc(-c2ccccc2)o1)NC1C(=O)N2C(C(=O)O)=C(CNC(=O)c3c(Cl)cccc3Cl)CS[C@H]12 (stereo partly drawn) [Example 15, 7-(2-phenyl-1,3,4-oxadiazole-5-ylthio)acetamido-3-(2,6-dichlorobenzoylamino)methylceph-3-em-4-carboxylic acid]
